This note sets out measurements from US20230104671A1, “METHODS AND COMPOSITIONS FOR TREATING CARDIOMYOPATHY AND HEART FAILURE” (Ann and Robert H. Lurie Children's Hospital of Chicago, priority 2021, published 2023).

In this assay the test system is Egln1^Tie2Cre mice. Put plainly: C76 treatment of Egln1Tie2Cre mice: LV hypertrophy and cardiac fibrosis. Type of assay: in vivo. The settings on record: 3 week-old Egln1^Tie2Cre mice treated for 11 weeks. The protocol: Egln1^Tie2Cre mice, Egln1/Hif1a^Tie2Cre and Egln1/Hif2a^Tie2Cre double knockout mice were generated as described previously^16. Egln1^EndoCreERT2 mice were generated by crossing Egln1 floxed mice with EndoSCL-CreERT2 transgenic mice expressing the tamoxifen-inducible Cre recombinase under the control of the 5′ endothelial enhancer of the stem cell leukemia locus^23. At 8 weeks of age, Egln1^EndoCreERT2 and Egln1^f/f mice were treated with 2 mg tamoxifen intraperitoneally for 5 days to induced Egln1 deletion only in ECs. Mice were scarified at the age of ˜9 months. Both male and female mice were used in these studies. The use of animals was in compliance with the guidelines of the Animal Care and Use Committee of the Northwestern University and of the University of Arizona.
For Wheat Germ Agglutinin (WGA) staining, WGA conjugated with FITC or WGA conjugated with Alexa 647 were stained with cryosectioned slides at room temple for 10 mins.
For histological assessment, hearts were harvested and washed with PBS, followed by fixation in 4% formalin and dehydrated in 70% ethanol. After paraffin processing, the tissues were cut into semi-thin […] thick sections. Sections were stained with H & E staining or Masson's trichrome kit as a service of charge at Core Facility.
To assess the therapeutic potential of HIF-2α inhibition for cardiomyopathy, we treated 3 week-old Egln1^Tie2Cre mice with the HIF-2α translation inhibitor C76^31,35 for 11 weeks.

As to `COC(=O)c1sccc1N/N=C(\C#N)S(C)(=O)=O` [C76, methyl 3-[(2E)-2-[cyano(methylsulfonyl)methylidene]hydrazinyl]thiophene-2-carboxylate], under “FIGS. 10B and 10C”, the “cardiomyocyte surface area assessed by WGA staining” value is given as “significantly attenuated”. Moreover, the “perivascular fibrosis by trichrome staining” value (FIGS. 10D and 10E) is “significantly attenuated”. Besides, the “LV/BW ratio (LV hypertrophy)” value (compared to vehicle treatment, cardiac dissection (FIG. 10A)) is on record as “decreased”.
